Experimental data published in patent US9980943B2, “Methods of treating muscular dystrophy” (BOARD OF REGENTS OF THE NEVADA SYSTEM OF HIGHER EDUCATION, …, priority 2013, dated 2018).

Assays:
Format in all cases: cell-based, mouse
[1] = system: α7 integrin (LacZ reporter in α7βgal+/− myoblasts); assay: Myoblast α7+/LacZ integrin FDG assay (Burkin assay in myoblasts, 96-well); details: α7+/LacZ myoblasts, 96-well
[2] = system: α7 integrin (LacZ reporter in α7+/LacZ myotubes); assay: Myotube α7 integrin FDG assay (Burkin assay in myotubes, 96-well); details: myotubes
[3] = system: β-galactosidase in CMV-LacZ C2C12 myotubes; assay: CMV-LacZ secondary screen in C2C12 myotubes (β-Gal stabilizing assay); details: for CMV-LACZ in Myotubes (β-galactosidase activity relative to DMSO): CMV-LacZ C2C12 myotubes, 96-well format
In short: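 β-gal stabilization was measured in C2C12 myoblasts or myotubes stably transfected with a CMV-driven LacZ construct, using the FDG β-gal assay. Compounds were tested in dose-response at 0.5, 1, 5, 10, 20 and 40 μM, with two replicates per point.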

[4] = 5 uM, C2C12 CMV-LacZ myotubes, fold relative to DMSO
[5] = 10 uM, C2C12 CMV-LacZ myotubes, fold relative to DMSO
[6] = 20 uM, C2C12 CMV-LacZ myotubes, fold relative to DMSO
[7] = 40 uM, C2C12 CMV-LacZ myotubes, fold relative to DMSO

SMILES | Burkin Assay in Myoblasts, value relative to DMSO ([1]; 0.5 uM) | Burkin Assay in Myoblasts, value relative to DMSO ([1]; 1 uM) | Burkin Assay in Myoblasts, value relative to DMSO ([1]; 5 uM) | Burkin Assay in Myoblasts, value relative to DMSO ([1]; 10 uM) | Burkin Assay in Myoblasts, value relative to DMSO ([1]; 20 uM) | Burkin Assay in Myoblasts, value relative to DMSO ([1]; 40 uM) | Burkin Assay in Myotubes (signal relative to DMSO) ([2]; 0.5 uM) | Burkin Assay in Myotubes (signal relative to DMSO) ([2]; 1 uM) | Burkin Assay in Myotubes (signal relative to DMSO) ([2]; 5 uM) | Burkin Assay in Myotubes (signal relative to DMSO) ([2]; 10 uM) | Burkin Assay in Myotubes (signal relative to DMSO) ([2]; 20 uM) | Burkin Assay in Myotubes (signal relative to DMSO) ([2]; 40 uM) | CMV-LACZ in Myotubes, signal relative to DMSO [3, 4] | CMV-LACZ in Myotubes, signal relative to DMSO [3, 5] | CMV-LACZ in Myotubes, signal relative to DMSO [3, 6] | CMV-LACZ in Myotubes, signal relative to DMSO [3, 7] | further results
CC(=O)Nc1c(-c2ccc(Cl)cc2)c(=O)c2ccccc2n1C [MLS001214461-01] | 1.064 | 0.9241 | 0.8964 | 0.8123 | 0.8472 | 0.767 | 1.207 | 0.9586 | 1.072 | 0.9457 | 1.087 | 0.8844 | 0.8137 | 0.9363 | 0.9167 | 0.9566 | 
O=C(NCCc1ccc(F)cc1)N[C@@H](Cc1ccccc1)C(=O)O [MLS001214704-01] |  |  |  |  |  |  |  |  |  |  |  |  |  |  |  |  | fold induction at 0.5 µM ([1]; Mus musculus, Myoblast, 48 h, 0.5 uM, read-out: Burkin Assay in Myoblasts, value relative to DMSO): 1.11; fold induction at 1 µM ([1]; Mus musculus, Myoblast, 48 h, 1 uM, read-out: Burkin Assay in Myoblasts, value relative to DMSO): 1.3; fold induction at 5 µM ([1]; Mus musculus, Myoblast, 48 h, 5 uM, read-out: Burkin Assay in Myoblasts, value relative to DMSO): 1.08; fold induction at 10 µM ([1]; Mus musculus, Myoblast, 48 h, 10 uM, read-out: Burkin Assay in Myoblasts, value relative to DMSO): 1.19; fold induction at 20 µM ([1]; Mus musculus, Myoblast, 48 h, 20 uM, read-out: Burkin Assay in Myoblasts, value relative to DMSO): 0.985; fold induction at 40 µM ([1]; Mus musculus, Myoblast, 48 h, 40 uM, read-out: Burkin Assay in Myoblasts, value relative to DMSO): 1.05; fold induction at 0.5 µM ([2]; Mus musculus, Myotube, 0.5 uM, read-out: Burkin Assay in Myotubes (signal relative to DMSO)): 0.976; fold induction at 1 µM ([2]; Mus musculus, Myotube, 1 uM, read-out: Burkin Assay in Myotubes (signal relative to DMSO)): 1.11; fold induction at 5 µM ([2]; Mus musculus, Myotube, 5 uM, read-out: Burkin Assay in Myotubes (signal relative to DMSO)): 1.07; fold induction at 10 µM ([2]; Mus musculus, Myotube, 10 uM, read-out: Burkin Assay in Myotubes (signal relative to DMSO)): 1.11; fold induction at 20 µM ([2]; Mus musculus, Myotube, 20 uM, read-out: Burkin Assay in Myotubes (signal relative to DMSO)): 1.06; fold induction at 40 µM ([2]; Mus musculus, Myotube, 40 uM, read-out: Burkin Assay in Myotubes (signal relative to DMSO)): 1.16; fold induction at 5 µM ([3]; Mus musculus, C2C12, read-out: CMV-LACZ in Myotubes, signal relative to DMSO, 5 uM, C2C12 CMV-LacZ myotubes, fold relative to DMSO): 0.885; fold induction at 10 µM ([3]; Mus musculus, C2C12, read-out: CMV-LACZ in Myotubes, signal relative to DMSO, 10 uM, C2C12 CMV-LacZ myotubes, fold relative to DMSO): 1.28; fold induction at 20 µM ([3]; Mus musculus, C2C12, read-out: CMV-LACZ in Myotubes, signal relative to DMSO, 20 uM, C2C12 CMV-LacZ myotubes, fold relative to DMSO): 0.933; fold induction at 40 µM ([3]; Mus musculus, C2C12, read-out: CMV-LACZ in Myotubes, signal relative to DMSO, 40 uM, C2C12 CMV-LacZ myotubes, fold relative to DMSO): 0.914
COc1ccc(-n2c(SCC(=O)Nc3cccc(C(=O)O)c3)nnc2-c2ccco2)cc1 [MLS001215742-01] | 0.887 | 0.926 | 1.04 | 1.105 | 0.7682 | 0.8165 | 1.02 | 1.104 | 0.9803 | 1.155 | 0.8384 | 0.9687 |  |  |  |  | CMV-LACZ in Myotubes (β-galactosidase activity relative to DMSO) ([3]; 5 uM): 1.026; CMV-LACZ in Myotubes (β-galactosidase activity relative to DMSO) ([3]; 10 uM): 1.1034; CMV-LACZ in Myotubes (β-galactosidase activity relative to DMSO) ([3]; 20 uM): 0.9254; CMV-LACZ in Myotubes (β-galactosidase activity relative to DMSO) ([3]; 40 uM): 0.9851
O=C(O)c1cc(N=Cc2c(O)c3ccccc3oc2=O)ccc1O [MLS001216260-01] |  |  |  |  |  |  |  |  |  |  |  |  | 0.8516 | 1.031 | 1.09 | 0.8367 | Burkin Assay in Myoblasts, signal relative to DMSO ([1]; 0.5 uM): 1.0145; Burkin Assay in Myoblasts, signal relative to DMSO ([1]; 1 uM): 0.984; Burkin Assay in Myoblasts, signal relative to DMSO ([1]; 5 uM): 0.8531; Burkin Assay in Myoblasts, signal relative to DMSO ([1]; 10 uM): 0.8798; Burkin Assay in Myoblasts, signal relative to DMSO ([1]; 20 uM): 0.8781; Burkin Assay in Myoblasts, signal relative to DMSO ([1]; 40 uM): 0.8933; Burkin Assay in Myotubes, α7 integrin LacZ reporter signal relative to DMSO ([2]; 0.5 uM): 1.005; Burkin Assay in Myotubes, α7 integrin LacZ reporter signal relative to DMSO ([2]; 1 uM): 0.9893; Burkin Assay in Myotubes, α7 integrin LacZ reporter signal relative to DMSO ([2]; 5 uM): 1.16; Burkin Assay in Myotubes, α7 integrin LacZ reporter signal relative to DMSO ([2]; 10 uM): 1.06; Burkin Assay in Myotubes, α7 integrin LacZ reporter signal relative to DMSO ([2]; 20 uM): 0.9144; Burkin Assay in Myotubes, α7 integrin LacZ reporter signal relative to DMSO ([2]; 40 uM): 0.9348
